Experimental data from ChEMBL document CHEMBL4385605, “Synthesis and Structure-Affinity Relationships of Spirocyclic Benzopyrans with Exocyclic Amino Moiety” (J Med Chem, 2019).
Active and inactive are the calls of the source. The rule behind the calls is not given here.

How the values were obtained:
[1] = target: Sodium-dependent dopamine transporter (Homo sapiens) (UniProt Q01959); assay: Binding affinity to dopamine transporter (unknown origin) at 1 uM
[2] = target: Sigma intracellular receptor 2 (Homo sapiens, UniProt Q5BJF2); assay: Displacement of [3H]-di-o-tolylguanidine from sigma2 receptor in human RT4 cell membranes incubated for 120 mins in the presence of sigma1 receptor ligand (+)-pentazocine by scintillation counting method
Sequence of Sigma intracellular receptor 2 (Homo sapiens, UniProt Q5BJF2) (Q5BJF2 whole entry): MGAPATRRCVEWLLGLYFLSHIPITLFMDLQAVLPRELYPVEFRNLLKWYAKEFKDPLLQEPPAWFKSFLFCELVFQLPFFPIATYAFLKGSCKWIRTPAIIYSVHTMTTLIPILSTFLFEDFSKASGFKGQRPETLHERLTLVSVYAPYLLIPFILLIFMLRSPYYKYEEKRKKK

[3] = target: T1, Sigma intracellular receptor 2 (Rattus norvegicus, UniProt Q5U3Y7); assay: Displacement of [3H]-di-o-tolylguanidine from sigma2 receptor in rat liver membranes incubated for 120 mins in the presence of sigma1 receptor ligand (+)-pentazocine by scintillation counting method; format: cell membranes
T1 sequence (Q5U3Y7 whole entry): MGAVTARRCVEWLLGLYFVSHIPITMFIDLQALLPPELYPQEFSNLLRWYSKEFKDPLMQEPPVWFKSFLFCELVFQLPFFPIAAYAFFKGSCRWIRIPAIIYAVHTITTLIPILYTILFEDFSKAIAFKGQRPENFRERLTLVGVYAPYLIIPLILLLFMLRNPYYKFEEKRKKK

[4] = tested on: HepG2; assay: Cytotoxicity against human HepG2 cells at 1 to 100 uM incubated for 20 hrs under serum free condition by MTT assay; format: cell-based; conditions: hepg2, 20 h
[5] = target: Delta-type opioid receptor (Rattus norvegicus, UniProt P33533); assay: Displacement of [3H]DPDPE from delta opioid receptor in rat membranes after 120 mins by scintillation counting analysis; format: cell membranes
Sequence of Delta-type opioid receptor (P33533 whole entry): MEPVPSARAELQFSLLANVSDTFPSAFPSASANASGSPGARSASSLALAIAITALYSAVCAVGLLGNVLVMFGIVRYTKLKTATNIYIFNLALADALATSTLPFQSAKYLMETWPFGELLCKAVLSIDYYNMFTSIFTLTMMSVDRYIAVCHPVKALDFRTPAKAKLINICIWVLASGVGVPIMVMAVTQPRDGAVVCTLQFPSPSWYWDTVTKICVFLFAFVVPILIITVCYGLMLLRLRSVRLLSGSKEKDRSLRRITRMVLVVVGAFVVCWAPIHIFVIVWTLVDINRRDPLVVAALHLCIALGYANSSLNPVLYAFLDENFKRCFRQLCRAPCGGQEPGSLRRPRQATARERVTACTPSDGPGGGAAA

[6] = target: Kappa-type opioid receptor (Cavia porcellus) (UniProt P41144); assay: Displacement of [3H]U69,593 from kappa opioid receptor in guinea pig brain membrane at 1 uM after 120 mins by scintillation counting analysis relative to control; format: cell membranes
Sequence of Kappa-type opioid receptor (Cavia porcellus) (P41144 whole entry): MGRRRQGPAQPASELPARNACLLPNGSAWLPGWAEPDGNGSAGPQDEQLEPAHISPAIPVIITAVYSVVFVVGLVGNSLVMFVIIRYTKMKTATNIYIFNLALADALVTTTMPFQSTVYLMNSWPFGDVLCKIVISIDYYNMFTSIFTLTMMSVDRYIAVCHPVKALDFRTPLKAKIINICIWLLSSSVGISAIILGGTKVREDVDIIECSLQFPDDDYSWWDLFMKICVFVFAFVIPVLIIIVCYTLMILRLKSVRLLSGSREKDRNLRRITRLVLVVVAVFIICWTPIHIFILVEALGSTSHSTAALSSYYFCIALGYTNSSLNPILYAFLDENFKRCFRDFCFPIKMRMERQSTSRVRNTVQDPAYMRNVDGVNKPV

[7] = target: Sodium-dependent serotonin transporter (Homo sapiens) (UniProt P31645); assay: Binding affinity to serotonin transporter (unknown origin) at 1 uM
Sequence of Sodium-dependent serotonin transporter (Homo sapiens) (P31645 whole entry, looked up): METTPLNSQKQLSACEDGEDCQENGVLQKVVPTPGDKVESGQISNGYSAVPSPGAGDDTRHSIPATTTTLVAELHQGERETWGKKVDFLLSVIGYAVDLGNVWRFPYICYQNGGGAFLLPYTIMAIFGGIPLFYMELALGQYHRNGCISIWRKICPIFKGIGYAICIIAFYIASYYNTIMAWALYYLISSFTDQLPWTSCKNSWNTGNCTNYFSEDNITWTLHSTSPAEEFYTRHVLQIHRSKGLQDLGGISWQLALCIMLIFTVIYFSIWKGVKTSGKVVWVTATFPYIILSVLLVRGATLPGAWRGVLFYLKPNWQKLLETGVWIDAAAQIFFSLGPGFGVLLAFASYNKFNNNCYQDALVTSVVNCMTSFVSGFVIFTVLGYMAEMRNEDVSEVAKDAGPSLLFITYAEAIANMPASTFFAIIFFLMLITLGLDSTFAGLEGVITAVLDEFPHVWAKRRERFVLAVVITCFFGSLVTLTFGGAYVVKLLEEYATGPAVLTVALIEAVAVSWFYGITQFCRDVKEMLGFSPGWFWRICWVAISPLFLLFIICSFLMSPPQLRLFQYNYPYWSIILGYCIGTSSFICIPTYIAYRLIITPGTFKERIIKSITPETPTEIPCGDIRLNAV

[8] = target: 5-hydroxytryptamine receptor 2B (Homo sapiens) (UniProt P41595); assay: Binding affinity to 5-HT2BR (unknown origin) at 1 uM relative to control
Sequence of 5-hydroxytryptamine receptor 2B (Homo sapiens) (P41595 whole entry): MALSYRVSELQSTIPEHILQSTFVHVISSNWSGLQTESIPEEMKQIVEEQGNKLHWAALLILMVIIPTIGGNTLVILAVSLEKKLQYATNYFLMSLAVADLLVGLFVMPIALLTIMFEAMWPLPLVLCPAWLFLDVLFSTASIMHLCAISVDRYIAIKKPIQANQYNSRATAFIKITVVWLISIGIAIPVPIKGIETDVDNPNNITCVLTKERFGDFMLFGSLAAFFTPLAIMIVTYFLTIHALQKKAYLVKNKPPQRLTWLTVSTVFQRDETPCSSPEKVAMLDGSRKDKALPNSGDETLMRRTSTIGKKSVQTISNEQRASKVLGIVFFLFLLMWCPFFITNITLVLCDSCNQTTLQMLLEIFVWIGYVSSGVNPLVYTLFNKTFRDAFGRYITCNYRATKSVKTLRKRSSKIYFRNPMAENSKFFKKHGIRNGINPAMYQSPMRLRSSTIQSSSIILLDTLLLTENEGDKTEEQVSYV

[9] = target: Cytochrome P450 3A4 (Homo sapiens, UniProt P08684); assay: Inhibition of recombinant human CYP3A4 at 1 uM by fluorescence assay; format: ADME; conditions: recombinant enzyme
Sequence of Cytochrome P450 3A4 (P08684 whole entry): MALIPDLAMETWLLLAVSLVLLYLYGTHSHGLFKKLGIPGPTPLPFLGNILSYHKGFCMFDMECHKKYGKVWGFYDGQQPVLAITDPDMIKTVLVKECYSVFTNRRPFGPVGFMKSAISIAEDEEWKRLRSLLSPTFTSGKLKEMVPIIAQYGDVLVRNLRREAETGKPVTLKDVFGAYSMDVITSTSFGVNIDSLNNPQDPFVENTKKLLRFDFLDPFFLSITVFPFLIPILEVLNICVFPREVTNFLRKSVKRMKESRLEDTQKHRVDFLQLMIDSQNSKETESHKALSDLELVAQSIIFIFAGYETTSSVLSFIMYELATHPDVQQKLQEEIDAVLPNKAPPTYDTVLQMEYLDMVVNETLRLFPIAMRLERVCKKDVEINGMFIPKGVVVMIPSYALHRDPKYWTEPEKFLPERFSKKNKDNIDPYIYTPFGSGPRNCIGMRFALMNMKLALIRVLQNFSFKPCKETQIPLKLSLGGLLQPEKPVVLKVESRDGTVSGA

[10] = target: T2, Alpha-2A adrenergic receptor (Homo sapiens) (UniProt P08913); assay: Binding affinity to alpha 2a adrenergic receptor (unknown origin) at 1 uM relative to control
T2 sequence (whole entry): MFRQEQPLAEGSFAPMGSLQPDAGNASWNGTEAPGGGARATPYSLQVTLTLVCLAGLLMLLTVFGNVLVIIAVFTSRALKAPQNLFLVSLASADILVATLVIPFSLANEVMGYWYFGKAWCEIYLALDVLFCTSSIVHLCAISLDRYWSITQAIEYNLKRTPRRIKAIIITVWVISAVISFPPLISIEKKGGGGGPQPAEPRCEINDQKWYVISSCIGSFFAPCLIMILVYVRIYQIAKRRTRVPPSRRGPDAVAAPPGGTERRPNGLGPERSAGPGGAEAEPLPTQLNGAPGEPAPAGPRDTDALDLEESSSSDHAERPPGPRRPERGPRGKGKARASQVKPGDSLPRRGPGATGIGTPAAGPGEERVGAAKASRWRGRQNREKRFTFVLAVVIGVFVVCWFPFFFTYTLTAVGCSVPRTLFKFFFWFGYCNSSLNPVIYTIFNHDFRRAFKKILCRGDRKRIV

[11] = Metabolic stability in human liver microsomes assessed as parent compound remaining at 1 uM in the presence of NADPH regenerating system after 60 mins by UPLC/MS analysis; format: ADME, Microsome; conditions: read-out: Stability
[12] = target: Cytochrome P450 2C19 (Homo sapiens, UniProt P33261); assay: Inhibition of recombinant human CYP2C19 at 1 uM by fluorescence assay; format: ADME; conditions: recombinant enzyme
Sequence of Cytochrome P450 2C19 (P33261 whole entry): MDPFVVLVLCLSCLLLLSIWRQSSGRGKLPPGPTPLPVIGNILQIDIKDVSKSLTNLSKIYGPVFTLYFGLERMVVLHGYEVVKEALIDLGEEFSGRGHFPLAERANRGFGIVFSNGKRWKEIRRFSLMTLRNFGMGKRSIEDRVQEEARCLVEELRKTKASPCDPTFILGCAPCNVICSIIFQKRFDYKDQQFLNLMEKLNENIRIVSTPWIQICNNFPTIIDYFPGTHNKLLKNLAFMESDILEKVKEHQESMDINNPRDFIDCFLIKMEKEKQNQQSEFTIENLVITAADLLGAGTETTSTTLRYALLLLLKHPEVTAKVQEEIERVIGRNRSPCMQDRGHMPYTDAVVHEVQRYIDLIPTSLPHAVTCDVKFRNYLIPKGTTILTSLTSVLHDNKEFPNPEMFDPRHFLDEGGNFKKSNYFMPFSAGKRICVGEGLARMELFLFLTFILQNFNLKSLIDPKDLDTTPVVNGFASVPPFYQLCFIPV

[13] = target: Sigma non-opioid intracellular receptor 1 (Homo sapiens, UniProt Q99720); assay: Displacement of [3H](+)-pentazocine from sigma 1 receptor in human RPMI8226 cell membranes incubated for 2 hrs under shaking by scintillation counting analysis
Sequence of Sigma non-opioid intracellular receptor 1 (Q99720 whole entry): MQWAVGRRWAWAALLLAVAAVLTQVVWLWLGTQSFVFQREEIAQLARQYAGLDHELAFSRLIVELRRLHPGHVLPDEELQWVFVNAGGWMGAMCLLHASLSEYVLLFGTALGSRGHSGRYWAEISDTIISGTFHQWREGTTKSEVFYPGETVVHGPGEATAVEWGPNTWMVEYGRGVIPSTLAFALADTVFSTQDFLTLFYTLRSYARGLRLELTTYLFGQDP

[14] = target: T3, Cytochrome P450 1A2 (Homo sapiens, UniProt P05177); assay: Inhibition of recombinant human CYP1A2 at 1 uM by fluorescence assay; format: ADME; conditions: recombinant enzyme
T3 sequence (P05177 whole entry): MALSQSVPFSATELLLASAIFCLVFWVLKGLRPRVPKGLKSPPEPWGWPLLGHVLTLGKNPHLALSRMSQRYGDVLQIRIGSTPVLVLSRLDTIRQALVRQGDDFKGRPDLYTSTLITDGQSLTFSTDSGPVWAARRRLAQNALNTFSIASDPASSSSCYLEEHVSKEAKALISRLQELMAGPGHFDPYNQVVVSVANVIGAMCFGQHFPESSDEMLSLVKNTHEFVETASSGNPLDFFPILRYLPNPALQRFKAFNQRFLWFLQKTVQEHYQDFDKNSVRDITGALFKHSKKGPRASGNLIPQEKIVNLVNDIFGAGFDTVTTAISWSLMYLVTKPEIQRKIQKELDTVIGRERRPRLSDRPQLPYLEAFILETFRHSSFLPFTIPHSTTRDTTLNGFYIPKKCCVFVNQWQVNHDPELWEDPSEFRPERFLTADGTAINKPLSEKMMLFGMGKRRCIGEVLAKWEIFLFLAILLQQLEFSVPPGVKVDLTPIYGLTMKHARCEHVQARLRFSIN

[15] = target: Sigma non-opioid intracellular receptor 1 (Rattus norvegicus) (UniProt Q9R0C9); assay: Antagonist activity at sigma 1 receptor in rat PC12 cells assessed as suppression of opipramol-induced inhibition of KCl-stimulated intracellular calcium influx at 10 nM preincubated for 5 mins followed by opipramol addition for 5 mins and subsequent KCl-stimulation by fura-2-AM dye based fluorescence assay; format: cell-based
Sequence of Sigma non-opioid intracellular receptor 1 (Rattus norvegicus) (Q9R0C9 whole entry): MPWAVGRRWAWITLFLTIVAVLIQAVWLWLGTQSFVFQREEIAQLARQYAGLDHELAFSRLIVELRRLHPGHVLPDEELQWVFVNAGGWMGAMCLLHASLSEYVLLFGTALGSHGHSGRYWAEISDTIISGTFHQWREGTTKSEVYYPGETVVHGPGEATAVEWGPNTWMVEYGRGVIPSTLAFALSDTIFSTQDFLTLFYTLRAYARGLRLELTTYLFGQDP

[16] = target: T4, 5-hydroxytryptamine receptor 1A (Homo sapiens) (UniProt P08908); assay: Binding affinity to 5-HT1AR (unknown origin) at 1 uM relative to control
T4 sequence (whole entry): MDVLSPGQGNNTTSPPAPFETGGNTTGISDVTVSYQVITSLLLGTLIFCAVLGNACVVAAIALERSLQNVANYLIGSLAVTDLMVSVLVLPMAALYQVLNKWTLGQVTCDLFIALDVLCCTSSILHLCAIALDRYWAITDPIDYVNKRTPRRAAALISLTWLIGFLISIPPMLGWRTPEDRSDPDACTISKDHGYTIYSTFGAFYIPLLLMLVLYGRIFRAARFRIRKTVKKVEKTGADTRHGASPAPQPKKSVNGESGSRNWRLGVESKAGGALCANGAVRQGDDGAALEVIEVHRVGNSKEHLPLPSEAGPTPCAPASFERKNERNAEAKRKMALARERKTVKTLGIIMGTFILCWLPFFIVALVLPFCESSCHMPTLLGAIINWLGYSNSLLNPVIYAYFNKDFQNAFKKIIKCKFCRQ

[17] = Selectivity ratio of Ki for displacement of [3H]DTG from sigma2 receptor in rat liver membranes to Ki for displacement of (+)-[3H]pentazocine from sigma 1 receptor in guinea pig brain cortex membranes; format: cell membranes
[18] = tested on: HepG2; assay: Cytotoxicity against human HepG2 cells at 1 to 100 uM incubated for 20 hrs under serum free condition by neutral red uptake assay; format: cell-based; conditions: hepg2, 20 h
[19] = target: CYP2D6 (Homo sapiens, UniProt P10635); assay: Inhibition of recombinant human CYP2D6 at 1 uM by fluorescence assay relative to control; format: ADME
Sequence of CYP2D6 (P10635 whole entry): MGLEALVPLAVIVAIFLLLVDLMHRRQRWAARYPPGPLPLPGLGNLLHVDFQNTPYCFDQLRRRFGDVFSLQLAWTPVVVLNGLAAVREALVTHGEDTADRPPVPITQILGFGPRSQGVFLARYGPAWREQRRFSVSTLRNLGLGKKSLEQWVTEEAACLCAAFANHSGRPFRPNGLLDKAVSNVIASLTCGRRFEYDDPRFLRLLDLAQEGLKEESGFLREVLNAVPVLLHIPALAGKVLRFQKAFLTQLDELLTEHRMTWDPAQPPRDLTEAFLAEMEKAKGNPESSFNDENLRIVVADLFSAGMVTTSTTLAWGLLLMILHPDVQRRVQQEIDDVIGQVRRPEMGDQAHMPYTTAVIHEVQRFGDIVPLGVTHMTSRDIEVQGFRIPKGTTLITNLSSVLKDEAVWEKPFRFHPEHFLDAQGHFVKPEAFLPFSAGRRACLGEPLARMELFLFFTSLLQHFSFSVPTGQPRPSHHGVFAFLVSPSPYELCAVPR

Sequence of Sodium-dependent dopamine transporter (Homo sapiens) (Q01959 whole entry): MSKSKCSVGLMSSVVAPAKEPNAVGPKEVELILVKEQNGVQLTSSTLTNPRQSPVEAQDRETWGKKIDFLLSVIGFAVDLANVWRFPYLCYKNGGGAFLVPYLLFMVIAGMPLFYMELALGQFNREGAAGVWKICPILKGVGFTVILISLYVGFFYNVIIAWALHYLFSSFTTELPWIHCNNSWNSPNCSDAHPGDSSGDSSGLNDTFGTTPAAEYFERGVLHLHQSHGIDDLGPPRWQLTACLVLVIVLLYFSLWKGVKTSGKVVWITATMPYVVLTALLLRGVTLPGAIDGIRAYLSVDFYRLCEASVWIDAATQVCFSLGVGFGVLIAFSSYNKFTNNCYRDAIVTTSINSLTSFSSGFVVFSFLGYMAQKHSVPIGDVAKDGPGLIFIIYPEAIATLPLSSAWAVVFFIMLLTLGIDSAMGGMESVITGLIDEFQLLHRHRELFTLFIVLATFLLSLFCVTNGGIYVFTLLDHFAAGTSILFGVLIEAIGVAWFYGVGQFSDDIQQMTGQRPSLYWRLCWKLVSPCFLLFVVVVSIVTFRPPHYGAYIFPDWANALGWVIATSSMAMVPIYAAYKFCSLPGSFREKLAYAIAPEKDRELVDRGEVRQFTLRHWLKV

COC1Cc2ccccc2[C@]2(CC[C@H](N(C)CC3CCCCC3)CC2)O1 (some centres undefined)
Activity [1]: inactive | Ki [2]: 13 nM | Ki [3]: 12 nM | Activity [4]: Non-Toxic | Ki [5]: 364 nM | inhibition [6]: 0% | Activity [7]: inactive | Activity [8]: 62% | inhibition (INH) [9]: Not Active | Activity [10]: 93% | remaining at 1 h, 1 µM [11]: > 50% | inhibition (INH) [12]: Not Active | Ki [13]: 7.3 nM | inhibition (INH) [14]: Not Active | inhibition [15]: Active | Activity [16]: 60% | Ratio Ki [17]: 5 to 10 | Activity [18]: Non-Toxic | inhibition at 1 µM [19]: > 90%
